One experiment concerns CHO-K1. As to the kind of experiment: Counterscreen for antagonists of the orexin 1 receptor (OX1R; HCRTR1): Homogeneous time resolved fluorescence (HTRF)-based cell-based dose response assay to identify antagonists of the parental CHO-K1 cell line. [Related pubchem assays (depositor defined):AID434989, AID435008, AID463079, AID485270, AID492963, AID492964, AID492965, AID493232, AID504699, AID504701]. It counts as functional. The settings on record: Cricetulus griseus. In general terms: The purpose of a counterscreen is to sort out artefacts and off-target activity.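 Note: potency for inhibition of ATP-stimulated IP1 production as antagonists.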

The nature of experiment [1]: Counterscreen for antagonists of the orexin 1 receptor (OX1R; HCRTR1): Fluorescence-based cell-based high throughput dose response assay to identify antagonists of the parental CHO cell line. [Related pubchem assays (depositor defined):AID434989, AID435008, AID463079, AID485270, AID492963, AID492964, AID492965, AID493232, AID504699, AID504701]. The experiment is classed as functional.

Experiment [2] deals with T1, Orexin/Hypocretin receptor type 1 (Homo sapiens, UniProt O43613).
T1 sequence (O43613 whole entry): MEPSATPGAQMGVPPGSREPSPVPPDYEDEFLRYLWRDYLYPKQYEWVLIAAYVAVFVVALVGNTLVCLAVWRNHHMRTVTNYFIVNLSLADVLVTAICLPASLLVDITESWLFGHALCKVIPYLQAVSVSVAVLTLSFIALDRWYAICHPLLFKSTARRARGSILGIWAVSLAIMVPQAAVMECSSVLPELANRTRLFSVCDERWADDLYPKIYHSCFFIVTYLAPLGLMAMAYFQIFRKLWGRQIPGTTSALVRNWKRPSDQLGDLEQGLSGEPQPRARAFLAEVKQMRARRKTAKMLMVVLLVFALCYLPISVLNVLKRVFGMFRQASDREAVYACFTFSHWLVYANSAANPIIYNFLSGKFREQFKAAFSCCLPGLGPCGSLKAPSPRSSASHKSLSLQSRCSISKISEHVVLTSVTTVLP
The experiment is described as follows: Homogeneous Time Resolved Fluorescence (HTRF)-based cell-based high throughput dose response assay for antagonists of the orexin 1 receptor (OX1R; HCRTR1). [Related pubchem assays (depositor defined):AID434989, AID435008, AID463079, AID485270, AID492963, AID492964, AID492965, AID493232, AID504717, AID504718]. The experiment is classed as functional. A general note: TR-FRET usually uses a lanthanide donor and a delayed reading to cut background.

The target in experiment [3] is T1, Orexin/Hypocretin receptor type 1. As to the kind of experiment: Fluorescence-based cell-based high throughput dose response assay for antagonists of the orexin 1 receptor (OX1R; HCRTR1). [Related pubchem assays (depositor defined):AID434989, AID435008, AID463079, AID485270, AID492963, AID492964, AID492965, AID493232, AID504717, AID504718]. It counts as functional.

The nature of experiment [4]: Luminescence Cell-Based Dose Retest to Confirm Inhibitors of Cancer Stem Cells. [Related pubchem assays (depositor defined):AID2717, AID2721]. The experiment is classed as functional. The settings on record: Homo sapiens.
The target in the next experiment is Beta-galactosidase (Escherichia coli, UniProt Q8VNN2). The experiment is described as follows: detection-enzyme interference by beta-gal modulators – biochemical, E. coli enzyme, set 3, artefact control for CCR6 antagonist project, dose response (AID 504712). It counts as functional.
Beta-galactosidase, sequence (Q8VNN2 whole entry, the tested form may be a part): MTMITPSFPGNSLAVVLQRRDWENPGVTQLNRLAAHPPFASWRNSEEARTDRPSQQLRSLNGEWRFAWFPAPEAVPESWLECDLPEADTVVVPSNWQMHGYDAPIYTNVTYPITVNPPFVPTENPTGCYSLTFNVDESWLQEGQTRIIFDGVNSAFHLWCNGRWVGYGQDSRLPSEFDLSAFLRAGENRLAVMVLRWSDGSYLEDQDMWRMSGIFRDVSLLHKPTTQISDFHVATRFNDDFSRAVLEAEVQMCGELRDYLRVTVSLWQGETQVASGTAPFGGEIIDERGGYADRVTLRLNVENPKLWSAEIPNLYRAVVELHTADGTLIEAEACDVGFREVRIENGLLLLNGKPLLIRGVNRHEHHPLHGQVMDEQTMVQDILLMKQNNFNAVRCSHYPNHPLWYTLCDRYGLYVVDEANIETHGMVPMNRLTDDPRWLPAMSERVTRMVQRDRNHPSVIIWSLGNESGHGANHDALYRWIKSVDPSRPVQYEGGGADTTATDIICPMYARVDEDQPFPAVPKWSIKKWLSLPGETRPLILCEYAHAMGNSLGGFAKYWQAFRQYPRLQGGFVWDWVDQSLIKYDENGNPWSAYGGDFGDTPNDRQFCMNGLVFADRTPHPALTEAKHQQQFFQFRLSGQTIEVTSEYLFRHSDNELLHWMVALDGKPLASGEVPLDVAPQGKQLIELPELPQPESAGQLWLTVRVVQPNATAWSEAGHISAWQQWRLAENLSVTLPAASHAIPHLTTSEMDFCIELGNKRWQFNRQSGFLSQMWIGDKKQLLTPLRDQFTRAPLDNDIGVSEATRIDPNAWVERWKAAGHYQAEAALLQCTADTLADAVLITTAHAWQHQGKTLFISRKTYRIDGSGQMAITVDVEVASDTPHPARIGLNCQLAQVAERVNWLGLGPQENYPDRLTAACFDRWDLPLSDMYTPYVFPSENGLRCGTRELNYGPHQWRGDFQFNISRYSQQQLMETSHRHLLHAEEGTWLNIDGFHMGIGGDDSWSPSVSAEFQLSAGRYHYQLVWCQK
The target in a further experiment is Apelin receptor (Homo sapiens, UniProt P35414). The experiment is described as follows: apelin receptor antagonists, arrestin read-out – cell-based, luminescent, enzyme-fragment complementation, selectivity assay for CCR6 antagonist project, SAR follow-up (AID 588359). It counts as functional.
Apelin receptor, sequence (P35414 whole entry, the tested form may be a part): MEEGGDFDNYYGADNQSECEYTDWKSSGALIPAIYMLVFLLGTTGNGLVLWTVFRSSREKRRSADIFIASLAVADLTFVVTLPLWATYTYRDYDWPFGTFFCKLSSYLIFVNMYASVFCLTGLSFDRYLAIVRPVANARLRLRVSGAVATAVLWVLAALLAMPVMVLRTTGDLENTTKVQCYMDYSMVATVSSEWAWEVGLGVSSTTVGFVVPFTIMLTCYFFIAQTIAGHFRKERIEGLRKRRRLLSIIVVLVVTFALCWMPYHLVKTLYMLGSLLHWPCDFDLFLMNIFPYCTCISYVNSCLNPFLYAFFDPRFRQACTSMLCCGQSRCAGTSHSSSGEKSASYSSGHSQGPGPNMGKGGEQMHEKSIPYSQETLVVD
The target in another experiment is T2, Hexokinase HKDC1 (Homo sapiens, UniProt Q2TB90).
T2 sequence (Q2TB90 whole entry): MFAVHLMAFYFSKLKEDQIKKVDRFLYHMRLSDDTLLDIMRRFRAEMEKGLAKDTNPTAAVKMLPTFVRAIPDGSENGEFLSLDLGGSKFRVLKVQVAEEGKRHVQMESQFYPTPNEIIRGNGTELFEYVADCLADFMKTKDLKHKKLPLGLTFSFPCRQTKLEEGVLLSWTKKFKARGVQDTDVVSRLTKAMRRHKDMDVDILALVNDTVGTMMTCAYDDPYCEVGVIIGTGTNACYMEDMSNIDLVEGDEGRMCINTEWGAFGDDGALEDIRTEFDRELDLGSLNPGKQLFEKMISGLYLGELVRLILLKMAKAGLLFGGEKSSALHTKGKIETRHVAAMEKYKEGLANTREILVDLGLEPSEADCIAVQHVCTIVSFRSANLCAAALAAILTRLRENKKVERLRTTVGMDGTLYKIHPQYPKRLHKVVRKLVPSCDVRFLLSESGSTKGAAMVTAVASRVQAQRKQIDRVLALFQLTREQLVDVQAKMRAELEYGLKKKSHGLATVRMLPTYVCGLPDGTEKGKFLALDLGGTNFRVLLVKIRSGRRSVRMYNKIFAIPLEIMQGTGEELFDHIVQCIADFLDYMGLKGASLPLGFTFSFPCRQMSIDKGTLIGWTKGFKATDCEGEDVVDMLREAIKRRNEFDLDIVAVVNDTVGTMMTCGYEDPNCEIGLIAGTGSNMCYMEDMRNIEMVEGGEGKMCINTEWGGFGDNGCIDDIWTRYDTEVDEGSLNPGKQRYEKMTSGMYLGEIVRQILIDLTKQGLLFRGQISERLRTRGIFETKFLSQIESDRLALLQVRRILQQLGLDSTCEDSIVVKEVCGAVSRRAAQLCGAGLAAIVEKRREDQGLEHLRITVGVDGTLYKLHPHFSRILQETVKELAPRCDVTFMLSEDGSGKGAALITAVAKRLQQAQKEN
The experiment is described as follows: activation of HKDC1 glucose phosphorylation – biochemical, W721R variant, dose response (AID 504730). It counts as functional.

The nature of experiment [5]: decrease of insulin promoter-GFP reporter – imaging, high-content screening, mouse beta cells (AID 1628). It counts as functional. The settings on record: MIN6.
The nature of experiment [6]: MIN6 cell viability loss – mouse insulinoma, cytotoxicity control, dose response (AID 2122).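 Note: confirmatory high-throughput counterscreen run to flag cytotoxic compounds.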 It counts as functional.
Another experiment has as its target Exodeoxyribonuclease V (Escherichia coli (strain K12), UniProt P04993+P07648+P08394). As to the kind of experiment: RecBCD inhibition via phage-restricted bacterial growth – absorbance, V66 E. coli, mutant T4 phage, counter-screen for AddAB inhibitor project, dose response (AID 492957). The experiment is classed as functional, cell-based, Escherichia coli str. K-12 substr. MG1655.

For the next experiment, the target named is Nonstructural protein 1 (Influenza A virus, UniProt Q194T2). It counts as functional, Influenza A virus (A/California/07/2009(H1N1)).
Nonstructural protein 1, sequence (Q194T2 whole entry): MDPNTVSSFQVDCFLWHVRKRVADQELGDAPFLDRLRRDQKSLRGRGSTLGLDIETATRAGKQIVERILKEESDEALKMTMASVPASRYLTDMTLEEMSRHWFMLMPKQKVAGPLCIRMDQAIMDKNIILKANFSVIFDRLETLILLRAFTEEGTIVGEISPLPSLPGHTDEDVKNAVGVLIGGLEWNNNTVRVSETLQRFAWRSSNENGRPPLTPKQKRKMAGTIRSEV
Experiment [7] in a line: Counterscreen for AddAB inhibitors: absorbance-based bacterial cell-based high throughput dose response assay for inhibitors of bacterial viability. [Related pubchem assays (depositor defined):AID435030, AID449728, AID449731, AID488942, AID488955, AID488956]. It counts as functional.
The next experiment concerns BJ. The experiment is described as follows: growth inhibition of engineered Ras-driven BJ cells – cell-based, alamar blue fluorescence, cherrypicked samples, dose response (AID 2631).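 Note: confirmatory dose-response assay in RAS-dependent BJ fibroblasts engineered with TERT, LT and ST, with cytotoxicity read by fluorescence.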 The experiment is classed as functional. As to conditions: Homo sapiens. (Alamar Blue is a resazurin reagent that responds to reducing activity.)
Another experiment has as its system INS1. The experiment is described as follows: INS-1E survival protection against cytokine death – cell-based, luminescence, retest, dose response (AID 449756).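 Note: cell death triggered by IL-1 beta plus TNF-alpha plus IFN-gamma mixture; protective hits raise ATP signal compared with cytokine alone wells.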 The settings on record: Rattus norvegicus. The experiment is classed as functional.

IC50, AC50 and EC50 data for five compounds are collected here from ChEMBL document CHEMBL1201862, “PubChem BioAssay data set” (2004).

Calls of active or inactive are those of the source.

Exodeoxyribonuclease V, sequence (P04993 whole entry): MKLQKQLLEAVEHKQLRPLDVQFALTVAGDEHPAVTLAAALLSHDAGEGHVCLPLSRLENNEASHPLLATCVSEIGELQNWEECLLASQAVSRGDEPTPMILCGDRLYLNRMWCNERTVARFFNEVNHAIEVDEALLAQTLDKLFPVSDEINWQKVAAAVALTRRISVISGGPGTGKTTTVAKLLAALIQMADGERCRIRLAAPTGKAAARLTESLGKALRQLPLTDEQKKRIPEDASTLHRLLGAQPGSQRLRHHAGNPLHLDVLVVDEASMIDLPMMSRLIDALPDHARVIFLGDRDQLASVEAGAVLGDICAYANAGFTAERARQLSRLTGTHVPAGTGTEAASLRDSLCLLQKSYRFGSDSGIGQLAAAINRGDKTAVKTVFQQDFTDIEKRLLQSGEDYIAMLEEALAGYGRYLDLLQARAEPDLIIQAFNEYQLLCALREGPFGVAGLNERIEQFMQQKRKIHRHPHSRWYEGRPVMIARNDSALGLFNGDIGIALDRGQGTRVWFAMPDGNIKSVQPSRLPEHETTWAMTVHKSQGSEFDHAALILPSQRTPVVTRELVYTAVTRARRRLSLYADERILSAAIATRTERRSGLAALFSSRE
Exodeoxyribonuclease V, sequence (P07648 whole entry): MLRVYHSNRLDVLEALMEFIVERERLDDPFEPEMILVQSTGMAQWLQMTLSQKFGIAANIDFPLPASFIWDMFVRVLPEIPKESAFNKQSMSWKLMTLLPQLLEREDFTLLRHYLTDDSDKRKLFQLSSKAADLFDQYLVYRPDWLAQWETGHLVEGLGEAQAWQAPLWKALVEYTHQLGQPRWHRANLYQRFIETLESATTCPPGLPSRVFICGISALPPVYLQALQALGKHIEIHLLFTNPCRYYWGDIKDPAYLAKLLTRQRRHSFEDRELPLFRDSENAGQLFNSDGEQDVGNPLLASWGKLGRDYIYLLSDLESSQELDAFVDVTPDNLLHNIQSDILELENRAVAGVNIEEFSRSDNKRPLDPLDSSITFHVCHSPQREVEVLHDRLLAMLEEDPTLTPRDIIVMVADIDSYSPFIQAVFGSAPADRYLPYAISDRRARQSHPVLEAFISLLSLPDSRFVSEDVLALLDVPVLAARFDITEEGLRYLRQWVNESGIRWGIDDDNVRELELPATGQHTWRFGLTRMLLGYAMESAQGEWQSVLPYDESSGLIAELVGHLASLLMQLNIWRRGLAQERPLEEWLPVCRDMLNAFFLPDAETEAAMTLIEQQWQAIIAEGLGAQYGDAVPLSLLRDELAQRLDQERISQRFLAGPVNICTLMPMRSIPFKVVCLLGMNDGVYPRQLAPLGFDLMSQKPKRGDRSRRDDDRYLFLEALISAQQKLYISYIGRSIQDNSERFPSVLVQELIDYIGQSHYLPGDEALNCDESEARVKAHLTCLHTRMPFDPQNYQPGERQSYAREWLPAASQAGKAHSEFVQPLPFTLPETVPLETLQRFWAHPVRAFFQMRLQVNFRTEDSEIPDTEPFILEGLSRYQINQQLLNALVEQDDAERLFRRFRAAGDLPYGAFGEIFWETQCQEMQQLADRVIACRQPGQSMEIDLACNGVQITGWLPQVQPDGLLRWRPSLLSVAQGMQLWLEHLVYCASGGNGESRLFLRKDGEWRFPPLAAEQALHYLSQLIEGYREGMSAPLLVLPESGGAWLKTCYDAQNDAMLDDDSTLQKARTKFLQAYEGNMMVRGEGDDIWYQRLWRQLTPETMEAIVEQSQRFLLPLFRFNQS
Exodeoxyribonuclease V, sequence (P08394 whole entry): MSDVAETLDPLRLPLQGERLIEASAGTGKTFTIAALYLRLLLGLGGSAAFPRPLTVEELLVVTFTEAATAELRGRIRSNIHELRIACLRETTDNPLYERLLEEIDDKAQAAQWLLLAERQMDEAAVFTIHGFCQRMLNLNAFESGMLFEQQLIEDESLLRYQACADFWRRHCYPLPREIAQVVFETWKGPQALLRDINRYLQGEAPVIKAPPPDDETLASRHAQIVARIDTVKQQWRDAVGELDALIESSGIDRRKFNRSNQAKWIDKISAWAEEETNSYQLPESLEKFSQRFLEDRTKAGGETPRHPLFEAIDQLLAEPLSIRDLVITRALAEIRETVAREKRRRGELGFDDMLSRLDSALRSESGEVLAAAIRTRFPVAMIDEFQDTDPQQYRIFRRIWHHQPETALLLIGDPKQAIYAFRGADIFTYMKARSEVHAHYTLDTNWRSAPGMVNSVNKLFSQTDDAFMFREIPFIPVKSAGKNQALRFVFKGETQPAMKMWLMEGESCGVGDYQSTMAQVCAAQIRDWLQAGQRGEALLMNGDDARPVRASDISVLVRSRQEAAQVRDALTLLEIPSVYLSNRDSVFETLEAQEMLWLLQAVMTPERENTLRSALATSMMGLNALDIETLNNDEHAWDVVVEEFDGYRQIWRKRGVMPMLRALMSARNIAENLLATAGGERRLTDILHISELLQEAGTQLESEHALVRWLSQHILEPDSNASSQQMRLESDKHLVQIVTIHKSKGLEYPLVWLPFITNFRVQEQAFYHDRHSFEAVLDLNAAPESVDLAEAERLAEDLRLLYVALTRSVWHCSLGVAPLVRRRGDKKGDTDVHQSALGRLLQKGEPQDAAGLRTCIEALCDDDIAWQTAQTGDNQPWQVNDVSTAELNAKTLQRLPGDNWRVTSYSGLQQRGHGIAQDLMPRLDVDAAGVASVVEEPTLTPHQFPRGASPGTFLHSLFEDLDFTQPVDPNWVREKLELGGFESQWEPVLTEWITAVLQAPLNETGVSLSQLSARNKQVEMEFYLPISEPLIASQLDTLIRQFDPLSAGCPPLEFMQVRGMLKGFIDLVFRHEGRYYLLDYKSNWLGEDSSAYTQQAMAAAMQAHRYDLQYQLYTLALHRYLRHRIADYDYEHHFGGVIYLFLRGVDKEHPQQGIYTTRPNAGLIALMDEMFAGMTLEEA

By IC50 is commonly meant the concentration at which inhibition is half-maximal. Consider `Cc1ccc(O)c(NC(=O)c2cc(-c3ccccc3Cl)on2)c1`, for which the IC50 with CHO-K1 is > 66.3 µM (inactive); in experiment [1], > 49.8 µM (inactive); in experiment [2], 7.23 µM (active); in experiment [3], > 49.8 µM (inactive).
The term AC50 denotes the concentration giving half of the maximal activity seen. In the case of `Cc1sc2nc(SCCN(C)C)n(-c3ccccc3)c(=O)c2c1-c1ccc(F)cc1`, in [4], the AC50 is 7.17 µM (active). Further, the IC50 at Beta-galactosidase was > 66.6 µM (inactive); on Apelin receptor, 30.9 µM (inactive).
By EC50 is commonly meant the midpoint of the concentration-response curve. For the compound `COc1ccc(NC(=O)Cc2c[nH]c3ccccc23)cc1S(=O)(=O)N1CCCCC1`, the EC50 at Hexokinase HKDC1 is > 80 µM (inactive).
For `Cc1nn(C)c(C)c1CNC(=O)c1cc2n(n1)C(C(F)(F)F)CC(c1cccs1)N2` (stereo unspecified), the IC50 in [5] was 1.94 µM (active); in experiment [6], 1.11 µM (active).
With `COc1cccc(/C=N/Nc2ncnc(Cl)c2N)c1O`, the IC50 on Exodeoxyribonuclease V is > 119 µM (inactive); on Nonstructural protein 1, 3.65 µM (active); in [7] it was > 119 µM (inactive). Moreover, the AC50 in experiment [4] is 2.96 µM (active); in the experiment with INS1 it was 1.02 µM (active). Further, the EC50 in the experiment with BJ was 1.27 µM (inconclusive).
